Patent US20240245741A1, “EXTRACTION METHOD USING AN AQUEOUS ALKANEDIOL” (Minasolve SAS, priority 2021, published 2024)
≈ marks a conversion by molar mass, not a printed value. Where two headings read alike, the source gives them in different places.

Legend:
[1] = physchem; conditions: for solubility at 5 min: thermodynamic from solid
Experimental: All experiments were performed at ambient temperature. Each model substance was weighted into test tubes, and a precise volume of each solvent mixture was added in order to obtain saturated solutions. The test tubes were vortexed for 5 min and subsequently centrifuged (12000 rpm during 15 min at 25° C.). An aliquot of the supernatant was diluted for UV-spectrophotometric assay. Absorbance measurements were made at wavelengths adapted to each studied molecule. High Performance Liquid Chromatography (HPLC-DAD) was used for Rosmarinic Acid (RA) quantification. Determination of Radical Scavenging Capacity was conducted through DPPH assay.
Each experiment was performed in triplicate.
The solubilisation power of aqueous Pentylene Glycol solutions (from 0 to 100% of PG) for five different model substances was compared to that of 80 wt. % aqueous ethanol.
Various mixtures of bio-based PG and bio-based caprylyl glycol (CG) were explored for dissolving hesperidin. The proportion of bio-based caprylyl glycol ranged from 0 to 30%.
Regarding solubility in the ternary mixture of PG/CG/water, six different mixtures out of the monophasic region of the ternary system were prepared (see FIG. 2): Three water-rich solvent mixtures, one with a high percentage of PG, one with a high percentage of CG and one with a similar percentage of all three components. All the alkanediols used in this study were bio-based or “green”.

[2] = Ternary phase diagrams PG/water/lipophilic ingredient (monophasic region); conditions: with 85% PG, 10% water
Experimental: The ternary systems studied consisted of water and an organic solvent that is immiscible with water. A third liquid was added that is soluble in each of the other two components. This third liquid acts as a hydrotrope, which increases the solubility of the two immiscible liquids in each other. The white areas indicate a single-phase mixture (clear solution), while the grey areas show a biphasic mixture.
Binary mixtures of water and PG (0:100, 10:90, 20:80, 30:70, 40:60, 50:50, 60:40, 70:30, 80:20, 90:10, 100:0) were prepared in test tubes. Then the selected monoterpenes (carvacrol, carvone, geraniol, limonene, α-pinene, α-terpinene) were added dropwise (10 μL) to the binary mixtures and mixed. The addition of the monoterpenes was continued until the clear liquid changed to a turbid liquid. The test tubes were then shaken for 2 minutes and allowed to settle for 24 hours to check whether or not the biphasic liquid changed to a monophasic liquid. In the case of thymol, very small amounts of the solid sample were added to the binary mixtures of water/PG until a turbid liquid was visible to the naked eye.
Essential oils (thyme, citronella, eucalyptus and lavender) were added dropwise to the binary mixtures of water/PG until a turbid liquid was observed. After the addition of each drop (10 μL) and mixing, the samples were rested for 2 minutes to see whether there is a phase separation or not. […]

[3] = 25 °C, organic solvent or mixture
[4] = aqueous with cosolvent or surfactant or cyclodextrin

CC1=C(/C=C/C(C)=C/C=C/C(C)=C/C=C/C=C(C)/C=C/C=C(C)/C=C/C2=C(C)CCCC2(C)C)C(C)(C)CCC1 [B-C, β-carotene]
Solubility [1]: completely insoluble | Amount dissolved compared to hexane ([1]; ternary point 4 versus hexane): three times more

COc1cc(/C=C/C(=O)CC(=O)/C=C/c2ccc(O)c(OC)c2)ccc1O [CU, Curcumin]
solubility at 5 min ([1]; 25 °C, aqueous with cosolvent or surfactant or cyclodextrin): 1900 ± 45 µg/mL (≈ 5.16 mM) | solubility at 5 min [1, 3]: 5850 ± 310 µg/mL (≈ 15.9 mM) | solubility at 5 min ([1]; 25 °C, water): 0.5 µg/mL (≈ 0.00136 mM) | Solubility compared to 80% ethanol ([1]; 5 min): 1.6 fold | solubility at 5 min [1, 4]: 3650 ± 220 µg/mL (≈ 9.91 mM) | solubility at 5 min ([1]; organic solvent or mixture): 7900 µg/mL (≈ 21.4 mM)

O=C(O)c1cc(O)c(O)c(O)c1 [GA, Gallic acid]
Solubility in 70% PG relative to water (factor) [1]: ~12.4 times | solubility at 5 min [1, 3]: 42000 ± 540 µg/mL (≈ 247 mM) | solubility at 5 min ([1]; 25 °C, water): 10500 ± 1100 µg/mL (≈ 61.7 mM) | Solubility in 100% PG compared to that of 70% PG ([1]; 5 min): 32.3% | Solubilization power relative to 80% ethanol ([1]; 5 min): 58.75% | solubility at 5 min [1, 4]: 95100 ± 8120 µg/mL (≈ 559 mM)

COc1ccc([C@@H]2CC(=O)c3c(O)cc(O[C@@H]4O[C@H](CO[C@@H]5O[C@@H](C)[C@H](O)[C@@H](O)[C@H]5O)[C@@H](O)[C@H](O)[C@H]4O)cc3O2)cc1O [HE, Hesperidin]
Solubilisation power relative to 80% ethanol ([1]; 5% CG in PG versus 80% ethanol): 82.4% | Solubility compared to PG alone ([1]; 5% CG in PG versus PG alone): 5 times | Solubility ([1]; (PG:CG) solution, 1% CG): 0.078 ± 0.005 g/litre of solvent | Solubility ([1]; (PG:CG) solution, 5% CG): 0.11 ± 0.006 g/litre of solvent | Solubility ([1]; (PG:CG) solution, 10% CG): 0.071 ± 0.003 g/litre of solvent | Solubility ([1]; (PG:CG) solution, 20% CG): 0.071 ± 0.007 g/litre of solvent | Solubility ([1]; (PG:CG) solution, 30% CG): 0.06 ± 0.01 g/litre of solvent | Solubility ([1]; solvent 10% PG in water, ambient temperature): 0.013 ± 0.003 g/litre of solvent | Solubility ([1]; solvent 30% PG in water, ambient temperature): 0.177 ± 0.006 g/litre of solvent | Solubility ([1]; solvent 50% PG in water, ambient temperature): 0.218 ± 0.024 g/litre of solvent | Solubility ([1]; solvent 70% PG in water, ambient temperature): 0.19 ± 0.011 g/litre of solvent | Solubility ([1]; solvent 80% EtOH, ambient temperature): 0.13 ± 0.009 g/litre of solvent | Solubility ([1]; solvent 90% PG in water, ambient temperature): 0.118 ± 0.012 g/litre of solvent | Solubility ([1]; solvent 100% H2O, ambient temperature): 0.00 g/litre of solvent | Solubility ([1]; solvent 100% H2O, ambient temperature, listed as He): completely insoluble | Solubility ([1]; solvent 100% PG, ambient temperature): 0.0216 ± 0.002 g/litre of solvent | Solubility ([1]; solvent 100% PG, ambient temperature, listed as Hesperidin): 0.022 ± 0.002 g/litre of solvent | Concentration of natural substance in a saturated solution ([1]; ternary mixture No 1: 64.7% PG, 17.6% CG, 17.7% H2O): 340 ± 30 µg/mL | Concentration of natural substance in a saturated solution ([1]; ternary mixture No 2: 37.5% PG, 31.2% CG, 31.3% H2O): 440 ± 30 µg/mL | Concentration of natural substance in a saturated solution ([1]; ternary mixture No 3: 31.2% PG, 12.5% CG, 56.3% H2O): 460 ± 10 µg/mL | Concentration of natural substance in a saturated solution ([1]; ternary mixture No 4: 32.1% PG, 55.1% CG, 12.8% H2O): 300 ± 30 µg/mL | Concentration of natural substance in a saturated solution ([1]; ternary mixture No 5: 25% PG, 12.5% CG, 62.5% H2O): 400 ± 30 µg/mL | Concentration of natural substance in a saturated solution ([1]; ternary mixture No 6: 16.65% PG, 8.9% CG, 74.45% H2O): 310 ± 10 µg/mL | Concentration relative to 80% ethanol ([1]; ternary mixture No. 3 versus 80% ethanol): 3.6 times

O=C(/C=C/c1ccc(O)c(O)c1)O[C@H](Cc1ccc(O)c(O)c1)C(=O)O [RA, Rosmarinic Acid]
Solubilisation power relative to water [1]: 27.2 times | Solubilisation relative to water [1]: 26.8 times | solubility at 5 min [1, 3]: 12800 ± 1200 µg/mL (≈ 35.5 mM) | solubility at 5 min ([1]; 25 °C, water): 6600 ± 2400 µg/mL (≈ 18.3 mM) | Solubility relative to solubility in 80% ethanol ([1]; 5 min): 92% | solubility at 5 min [1, 4]: 302000 ± 9400 µg/mL (≈ 839 mM)

C=C(C)[C@H]1CC=C(C)CC1 [limonene]
Proportion in a self-stabilized ternary mixture [2]: 5%
